Consider eleven compounds from PubChem BioAssay (NCI).

Among the test systems are A498 renal; HCT-116 colon; HCT-15 colon; IGROV1 ovarian; KM12 colon; MCF7 breast; SK-MEL-2 melanoma; SN12C renal; SW-620 colon; UACC-62 melanoma.
Holding throughout (assay): inhibition of tumour cell growth, NCI panel, 48 h

The structures appear in SMILES notation.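 Tested at 5 concentrations; 48 h exposure; 96-well plates; endpoints linearly interpolated, else capped at highest concentration. GI50 marks 50% less growth. The concentration for full growth arrest is given as TGI.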

As for `COc1cc2c(cc1Cc1cccc(Cl)c1F)c(=O)c(C(=O)O)cn2[C@@H](CO)C(C)C`, the GI50 in the experiment with A498 renal is 2.26 µM; in the experiment on HCT-116 colon, 2.99 µM; in the experiment on HCT-15 colon, 3.64 µM; in the experiment with IGROV1 ovarian, 2.42 µM; with KM12 colon it was 4.03 µM; in the experiment on MCF7 breast it was 3.54 µM. The GI50 with SK-MEL-2 melanoma is 3.98 µM; in the experiment with SN12C renal it was 3.06 µM; in the experiment with SW-620 colon, 3.57 µM; in the experiment with UACC-62 melanoma, 2.74 µM. In addition, the TGI in the experiment with A498 renal was 14.2 µM; with HCT-116 colon it was 11.7 µM; in the experiment with HCT-15 colon, 14.4 µM; in the experiment on IGROV1 ovarian, 5.61 µM; in the experiment on KM12 colon, 13.1 µM; in the experiment with MCF7 breast, 16.3 µM. The TGI is 13.8 µM in the experiment with SK-MEL-2 melanoma, 13.7 µM in the experiment on SN12C renal, 15 µM in the experiment with SW-620 colon and 10.1 µM with UACC-62 melanoma.

`N/C(=N/N=C/c1ccccc1)N/N=C\c1ccccc1`: the GI50 with A498 renal is 6.03 µM; in the experiment on HCT-116 colon, 4.5 µM; with HCT-15 colon it was 3.72 µM; in the experiment with IGROV1 ovarian, 8.6 µM; in the experiment with KM12 colon, 2.76 µM; in the experiment with MCF7 breast, 3.4 µM. In addition, the GI50 in the experiment on SK-MEL-2 melanoma was 3.58 µM; with SN12C renal, 5.6 µM; in the experiment with SW-620 colon, 3.86 µM; with UACC-62 melanoma, 7.92 µM. Besides, the TGI in the experiment on A498 renal is above 100 µM; with HCT-116 colon, above 100 µM; in the experiment with HCT-15 colon, 30.3 µM; in the experiment with IGROV1 ovarian, above 100 µM; in the experiment on KM12 colon it was above 100 µM; in the experiment with MCF7 breast, above 100 µM. Also, the TGI in the experiment with SK-MEL-2 melanoma was 43.9 µM; in the experiment with SN12C renal, above 100 µM; with SW-620 colon, above 100 µM; with UACC-62 melanoma it was 28.6 µM.

Turning to `CC(=O)Nc1c(I)c(NC(C)=O)c(I)c(C(=O)O)c1I`, the GI50 in the experiment with A498 renal, in the experiment on HCT-116 colon, in the experiment on HCT-15 colon, with IGROV1 ovarian, in the experiment with KM12 colon and in the experiment with MCF7 breast was above 100 µM each time. The GI50 with SK-MEL-2 melanoma, in the experiment on SN12C renal, in the experiment on SW-620 colon and in the experiment with UACC-62 melanoma was above 100 µM in each case. For the same compound, the TGI with A498 renal, with HCT-116 colon, with HCT-15 colon, in the experiment with IGROV1 ovarian, with KM12 colon and with MCF7 breast was above 100 µM throughout. Besides, the TGI in the experiment on SK-MEL-2 melanoma, in the experiment with SN12C renal, in the experiment with SW-620 colon and in the experiment on UACC-62 melanoma was above 100 µM each time.

Regarding `O=C([O][Hg][CH2]C1OCCOC1[CH2][Hg][O]C(=O)c1ccccc1)c1ccccc1` (centres undefined), the GI50 in the experiment with A498 renal was 20.3 µM; in the experiment on HCT-116 colon, 4.21 µM; with HCT-15 colon it was 8.95 µM; in the experiment on IGROV1 ovarian, 10.1 µM; in the experiment with KM12 colon, 16.3 µM; with MCF7 breast it was 1.97 µM. Besides, the GI50 with SK-MEL-2 melanoma was 5.05 µM; in the experiment with SN12C renal, 13.2 µM; in the experiment with SW-620 colon it was 1.54 µM; in the experiment on UACC-62 melanoma, 16.5 µM. In addition, the TGI in the experiment on A498 renal was determined as 34.8 µM; in the experiment on HCT-116 colon it was 8.37 µM; in the experiment with HCT-15 colon, 24.9 µM; with IGROV1 ovarian it was 26.9 µM; in the experiment with KM12 colon, 30.1 µM; with MCF7 breast it was 24.4 µM. Also, the figures for the TGI with SN12C renal, in the experiment on SW-620 colon and with UACC-62 melanoma were 27.9 µM, 3 µM and 30.3 µM, respectively.

Regarding `CCCCCCCCC/C(=N\NC(=O)c1ccncc1)c1ccc(O)c(O)c1O`, the GI50 in the experiment on A498 renal was 1.56 µM; with HCT-116 colon it was 0.121 µM; with HCT-15 colon, 0.0635 µM; with IGROV1 ovarian, 0.184 µM; in the experiment with KM12 colon it was 0.348 µM; in the experiment on MCF7 breast, 0.309 µM. In addition, the GI50 is 0.521 µM with SK-MEL-2 melanoma, 0.207 µM in the experiment on SN12C renal, 0.365 µM with SW-620 colon and 0.188 µM with UACC-62 melanoma. The TGI in the experiment with A498 renal is above 100 µM; in the experiment on HCT-116 colon, 12.8 µM; with HCT-15 colon, above 100 µM; in the experiment on IGROV1 ovarian, above 78.1 µM; in the experiment on KM12 colon, above 100 µM; in the experiment on MCF7 breast, 18.3 µM. Also, the TGI with SK-MEL-2 melanoma is above 100 µM; with SN12C renal it was 35 µM; in the experiment with SW-620 colon, 28.3 µM; in the experiment on UACC-62 melanoma it was 3.3 µM.

Regarding `N#Cc1c(N2CCOCC2)nc(=S)[nH]c1-c1ccccc1`, the GI50 in the experiment with A498 renal is 3.66 µM; in the experiment on HCT-116 colon it was 42.4 µM; in the experiment with HCT-15 colon it was 24.9 µM; in the experiment on IGROV1 ovarian it was 3.15 µM; with KM12 colon, 35 µM; with MCF7 breast it was 4.89 µM. For the same compound, the GI50 was 4.5 µM in the experiment on SK-MEL-2 melanoma, 19 µM with SN12C renal, 74.2 µM in the experiment on SW-620 colon and 4.95 µM in the experiment with UACC-62 melanoma. The TGI in the experiment on A498 renal was 26.8 µM; with HCT-116 colon, above 100 µM; with HCT-15 colon, above 100 µM; in the experiment with IGROV1 ovarian it was above 100 µM; with KM12 colon it was above 100 µM; in the experiment on MCF7 breast it was above 100 µM. Moreover, the TGI with SK-MEL-2 melanoma, with SN12C renal, with SW-620 colon and in the experiment with UACC-62 melanoma was above 100 µM in each case.

Turning to `S=C(NCCNC(=S)[S][Sn]([c]1ccccc1)([c]1ccccc1)[c]1ccccc1)[S][Sn]([c]1ccccc1)([c]1ccccc1)[c]1ccccc1`, the GI50 is 0.0231 µM in the experiment on A498 renal; 0.0127 µM with HCT-116 colon; 0.0177 µM in the experiment with HCT-15 colon; 0.0429 µM in the experiment with IGROV1 ovarian; 0.0197 µM in the experiment with KM12 colon; 0.0133 µM with MCF7 breast. In addition, the GI50 in the experiment with SK-MEL-2 melanoma is 0.0823 µM; in the experiment with SN12C renal, 0.0325 µM; with SW-620 colon it was 0.014 µM; in the experiment with UACC-62 melanoma, 0.0231 µM. Further, the TGI in the experiment with A498 renal was found to be 0.0849 µM; in the experiment with HCT-116 colon, 0.0315 µM; in the experiment with HCT-15 colon it was 0.0696 µM; in the experiment with IGROV1 ovarian, 0.216 µM; in the experiment on KM12 colon it was 0.0652 µM; with MCF7 breast, 0.0553 µM. For the same compound, the TGI turned out to be 0.215 µM in the experiment on SK-MEL-2 melanoma, 0.218 µM in the experiment on SN12C renal, 0.0379 µM in the experiment on SW-620 colon and 0.104 µM in the experiment on UACC-62 melanoma.

On to `Cn1nc(C(F)(F)F)cc1-c1c[nH]c(OCc2ccc(Cl)cc2)c(-c2ccc(Cl)c(C(F)(F)F)c2)c1=O`, for which the GI50 in the experiment on A498 renal is 0.446 µM; with HCT-116 colon, 0.927 µM; with HCT-15 colon, 0.784 µM; with IGROV1 ovarian, 1.74 µM; in the experiment with KM12 colon, 1.26 µM; with MCF7 breast, 1.22 µM. Moreover, the GI50 was 0.761 µM with SK-MEL-2 melanoma, 0.755 µM in the experiment on SN12C renal, 1.44 µM in the experiment with SW-620 colon and 0.516 µM in the experiment on UACC-62 melanoma. The TGI in the experiment with A498 renal is 1.31 µM; with HCT-116 colon it was 4.51 µM; with HCT-15 colon, 5.07 µM; in the experiment with IGROV1 ovarian, above 40.5 µM; in the experiment with KM12 colon, 4.86 µM; with MCF7 breast, above 50 µM. The TGI in the experiment on SK-MEL-2 melanoma was determined as 2.52 µM; in the experiment with SN12C renal it was 6.95 µM; with SW-620 colon, 7.74 µM; in the experiment on UACC-62 melanoma it was 2.29 µM.

For the compound `C[C@@H](NC(=O)/C(C#N)=C/c1ccc([N+](=O)[O-])cc1)c1ccccc1`, the GI50 with A498 renal was 4.25 µM; in the experiment on HCT-116 colon, 1.89 µM; in the experiment with HCT-15 colon it was 1.85 µM; in the experiment with IGROV1 ovarian, 2.9 µM; in the experiment on KM12 colon, 2.07 µM; with MCF7 breast, 2.41 µM. Besides, the GI50 in the experiment on SK-MEL-2 melanoma is 3.3 µM; in the experiment on SN12C renal, 2.11 µM; in the experiment on SW-620 colon it was 1.83 µM; in the experiment with UACC-62 melanoma it was 1.8 µM. Besides, the TGI in the experiment on A498 renal turned out to be 8.49 µM; in the experiment with HCT-116 colon, 3.79 µM; with HCT-15 colon, 3.88 µM; in the experiment with IGROV1 ovarian, 8.13 µM; in the experiment on KM12 colon, 4.18 µM; in the experiment on MCF7 breast, 7.65 µM. For the same compound, the TGI turned out to be 8.52 µM in the experiment with SK-MEL-2 melanoma, 4.85 µM in the experiment with SN12C renal, 3.81 µM with SW-620 colon and 3.71 µM in the experiment with UACC-62 melanoma.

Consider `COc1ccc2c(c1)oc(=O)c1cc(OC)ccc12`, for which the GI50 is 1.56 µM in the experiment on A498 renal; above 100 µM in the experiment on HCT-116 colon; above 100 µM with HCT-15 colon; above 100 µM in the experiment with IGROV1 ovarian; above 100 µM with KM12 colon; above 100 µM in the experiment with MCF7 breast. Besides, the GI50 in the experiment on SK-MEL-2 melanoma was above 100 µM; in the experiment on SN12C renal it was above 100 µM; with SW-620 colon it was above 100 µM; with UACC-62 melanoma, 63 µM. Moreover, the TGI in the experiment with A498 renal is 99 µM; in the experiment on HCT-116 colon, above 100 µM; with HCT-15 colon, above 100 µM; in the experiment with IGROV1 ovarian, above 100 µM; with KM12 colon it was above 100 µM; in the experiment with MCF7 breast it was above 100 µM. In addition, the TGI with SK-MEL-2 melanoma, in the experiment on SN12C renal, with SW-620 colon and in the experiment on UACC-62 melanoma was above 100 µM throughout.

Turning to `Cc1ccc(-c2cc3c4c(nc5ccccc53)C(=O)c3cccnc3-c4n2)cc1`, the GI50 in the experiment with A498 renal is 11.8 µM; in the experiment with HCT-116 colon it was 7.65 µM; with HCT-15 colon, 12.7 µM; in the experiment with IGROV1 ovarian, 10.7 µM; in the experiment with KM12 colon, 6.46 µM; in the experiment on MCF7 breast, 1.85 µM. Also, the GI50 in the experiment on SK-MEL-2 melanoma is 15 µM; in the experiment with SN12C renal it was 14.4 µM; in the experiment with SW-620 colon, 5.7 µM; in the experiment on UACC-62 melanoma, 16 µM. The TGI worked out at 32.7 µM in the experiment with A498 renal; 22.8 µM in the experiment on HCT-116 colon; 49.9 µM with HCT-15 colon; 55.4 µM with IGROV1 ovarian; 25.7 µM in the experiment on KM12 colon; 6.31 µM with MCF7 breast. The TGI in the experiment on SK-MEL-2 melanoma was 38 µM; with SN12C renal, 30 µM; in the experiment with SW-620 colon, above 51.1 µM; with UACC-62 melanoma, 31.1 µM.
